In patent US6229029A, “11β-aryl substituted 14,17-ethanoestratriens, method for the production of these compounds and their use in the production of medicaments” (Schering Aktiengesellschaft, priority 1997, dated 2001):

Test system: uterus of infant rats
Test: Anti-uterus growth test in infant rats (antiestrogenic action)
Type: in vivo, rat
Conditions: with 0.3 μg/animal/day 17β-estradiol
Text: The influence of the compounds according to the invention on the uterus was examined in the uterus growth test (estrogenic action) and in the anti-uterus growth test (antiestrogenic action), both performed on infant rats.
The uterus of infant estrogen-substituted rats can be used as a test model to detect a direct action of substances with antiestrogenic properties. The parameter of the estrogenic action is the uterus growth that is induced by estradiol in infant rats and that is inhibited by simultaneous administration of a substance with antiestrogenic action.
The test substances are treated s.c. on 3 successive days (d1-d3) in combination with a substitution dose of 0.3 μg/animal/day of 17β-estradiol. As a positive control, 17β-estradiol alone is used; the vehicle group is used as a negative control. On day 4 (d4), the animals are sacrificed, uteri and vaginae are prepared outside and weighed. The organ weights are converted into mg/100 g of body weight, and then the mean and the standard deviation for each dosage are calculated. The inhibition of the uterus or vaginal growth that is induced by 17β-estradiol is indicated in % as inhibition.

Structure (SMILES): C[C@]12C[C@H](c3ccc(OCCCCCS(=O)(=O)Cc4ccccn4)cc3)[C@@H]3c4ccc(O)cc4CC[C@H]3[C@]13CC[C@@]2(O)CC3 [Compound A]
- Uterus Weight % of Inhibition (0.1 mg/kg s.c.): 33%
- Uterus Weight % of Inhibition (1 mg/kg s.c.): 88%
- Uterus Weight % of Inhibition (10 mg/kg s.c.): 121%
